Measured values from the supplement of paper PMC10307832.

Columns and labels:
Experiment in all cases: relative viability (nuclei count vs DMSO), 5 days (fraction); higher = more cells survive
NCI-H2170 = test system: NCI-H2170
How it was run: (§1)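 Relative viability equals treated-well nuclei counts divided by vehicle-well nuclei counts. Counts came from 4× images of lung cancer cell lines grown in 1536-well plates for 5 days after pin-tool dosing on the day after seeding. Dosing used one drug alone or a fixed anchor-drug dose plus five library-drug doses (not always all listed) in √10 steps, and values are medians of duplicate plates.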

NCI-H2347 = test system: NCI-H2347
How it was run: as §1

NCI-H2405 = test system: NCI-H2405
How it was run: as §1

NCI-H3122 = test system: NCI-H3122
How it was run: as §1

NCI-H322M = test system: NCI-H322M
How it was run: as §1

NCI-H441 = test system: NCI-H441
How it was run: as §1

NCI-H520 = test system: NCI-H520
How it was run: as §1

NCI-H647 = test system: NCI-H647
How it was run: as §1

PC-14 = test system: PC-14
How it was run: as §1

SW 900 = test system: SW 900
How it was run: as §1

UMC-11 = test system: UMC-11
How it was run: as §1

Compound Nc1ccn([C@@H]2O[C@H](CO)[C@@H](O)[C@@H]2O)c(=O)n1 [Cytarabine] + O=C(c1cc(Cc2n[nH]c(=O)c3ccccc23)ccc1F)N1CCN(C(=O)C2CC2)CC1 [Olaparib] (partner 8 µM) has a relative viability (NCI-H2170; first compound 0.05 µM) of 0.408, a relative viability (NCI-H2170; first compound 0.1581 µM) of 0.265 and a relative viability (NCI-H2170; first compound 0.5 µM) of 0.23. The relative viability (NCI-H2347; first compound 0.005 µM) was 0.59, the relative viability (NCI-H2347; first compound 0.01581 µM) was 0.569 and the relative viability (NCI-H2347; first compound 0.05 µM) was 0.522. The relative viability (NCI-H2347; first compound 0.1581 µM) was 0.538, the relative viability (NCI-H2347; first compound 0.5 µM) was 0.493 and the relative viability (NCI-H2405; first compound 0.005 µM) was 0.737. It also gave a relative viability (NCI-H2405; first compound 0.01581 µM) of 0.605, a relative viability (NCI-H2405; first compound 0.05 µM) of 0.509 and a relative viability (NCI-H2405; first compound 0.1581 µM) of 0.396. The relative viability (NCI-H2405; first compound 0.5 µM) was 0.336, the relative viability (NCI-H3122; first compound 0.005 µM) was 0.545 and the relative viability (NCI-H3122; first compound 0.01581 µM) was 0.658. It also gave a relative viability (NCI-H3122; first compound 0.05 µM) of 0.585, a relative viability (NCI-H3122; first compound 0.1581 µM) of 0.389 and a relative viability (NCI-H3122; first compound 0.5 µM) of 0.304. It also gave a relative viability (NCI-H322M; first compound 0.005 µM) of 0.773, a relative viability (NCI-H322M; first compound 0.01581 µM) of 0.695 and a relative viability (NCI-H322M; first compound 0.05 µM) of 0.467. For the same compound, the relative viability (NCI-H322M; first compound 0.1581 µM) was 0.469, the relative viability (NCI-H322M; first compound 0.5 µM) was 0.351 and the relative viability (NCI-H441; first compound 0.005 µM) was 0.451. It also gave a relative viability (NCI-H441; first compound 0.01581 µM) of 0.48, a relative viability (NCI-H441; first compound 0.05 µM) of 0.375 and a relative viability (NCI-H441; first compound 0.1581 µM) of 0.354. It also gave a relative viability (NCI-H441; first compound 0.5 µM) of 0.175, a relative viability (NCI-H520; first compound 0.005 µM) of 0.276 and a relative viability (NCI-H520; first compound 0.01581 µM) of 0.272. It also gave a relative viability (NCI-H520; first compound 0.05 µM) of 0.337, a relative viability (NCI-H520; first compound 0.1581 µM) of 0.263 and a relative viability (NCI-H520; first compound 0.5 µM) of 0.239. For the same compound, the relative viability (NCI-H647; first compound 0.005 µM) was 0.285, the relative viability (NCI-H647; first compound 0.01581 µM) was 0.22 and the relative viability (NCI-H647; first compound 0.05 µM) was 0.174. It also gave a relative viability (NCI-H647; first compound 0.1581 µM) of 0.0623, a relative viability (NCI-H647; first compound 0.5 µM) of 0.0624 and a relative viability (PC-14; first compound 0.005 µM) of 0.227. The relative viability (PC-14; first compound 0.01581 µM) was 0.252, the relative viability (PC-14; first compound 0.05 µM) was 0.241 and the relative viability (PC-14; first compound 0.1581 µM) was 0.105. It also gave a relative viability (PC-14; first compound 0.5 µM) of 0.0848, a relative viability (SW 900; first compound 0.005 µM) of 0.899 and a relative viability (SW 900; first compound 0.01581 µM) of 0.797. It also gave a relative viability (SW 900; first compound 0.05 µM) of 0.413, a relative viability (SW 900; first compound 0.1581 µM) of 0.242 and a relative viability (SW 900; first compound 0.5 µM) of 0.296. It also gave a relative viability (UMC-11; first compound 0.005 µM) of 0.345, a relative viability (UMC-11; first compound 0.01581 µM) of 0.329 and a relative viability (UMC-11; first compound 0.05 µM) of 0.302. It also gave a relative viability (UMC-11; first compound 0.1581 µM) of 0.248 and a relative viability (UMC-11; first compound 0.5 µM) of 0.218.
